Assay results as given in the supplement of paper PMC10307832.

Tests used:
Experiment in all cases: relative viability (nuclei count vs DMSO), 5 days (fraction); higher = more cells survive
[1] = compound: C[C@@]1(C(=O)Nc2ccc(F)nc2)CCCN1c1nc(Nc2cc(C3CC3)n[nH]2)c2cccn2n1 + C[C@]1(O)C[C@@H](c2nc(-c3ccc4ccc(-c5ccccc5)nc4c3)c3c(N)nccn32)C1 [Linsitinib] (partner 1 µM)
How it was run: (§1)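 Relative viability was taken as the ratio of nuclei in treated wells to nuclei in vehicle wells. Lung cancer cell lines in 1536-well plates received compounds by pin tool one day after seeding, either one drug alone or a fixed anchor-drug dose plus five library-drug doses (not always all listed) in √10 steps. Nuclei were counted on 4× images after 5 days of treatment, and values are medians of duplicate plates.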

Motesanib + Decitabine = compound: CC1(C)CNc2cc(NC(=O)c3cccnc3NCc3ccncc3)ccc21 [Motesanib] + Nc1ncn([C@H]2C[C@H](O)[C@@H](CO)O2)c(=O)n1 [Decitabine] (partner 2 µM)
How it was run: as §1

Motesanib + Luminespib = compound: CC1(C)CNc2cc(NC(=O)c3cccnc3NCc3ccncc3)ccc21 [Motesanib] + CCNC(=O)c1noc(-c2cc(C(C)C)c(O)cc2O)c1-c1ccc(CN2CCOCC2)cc1 [Luminespib] (partner 0.01 µM)
How it was run: as §1

Motesanib + Phenformin = compound: CC1(C)CNc2cc(NC(=O)c3cccnc3NCc3ccncc3)ccc21 [Motesanib] + N=C(N)NC(=N)NCCc1ccccc1 [Phenformin] (partner 250 µM)
How it was run: as §1

Row | Cell Line | relative viability ([1]; first compound 0.04 µM) | relative viability ([1]; first compound 0.1265 µM) | relative viability ([1]; first compound 0.4 µM) | relative viability ([1]; first compound 1.265 µM) | relative viability (Motesanib + Decitabine; first compound 0.01 µM) | relative viability (Motesanib + Decitabine; first compound 0.03162 µM) | relative viability (Motesanib + Decitabine; first compound 0.1 µM) | relative viability (Motesanib + Decitabine; first compound 0.3162 µM) | relative viability (Motesanib + Decitabine; first compound 1 µM) | relative viability (Motesanib + Luminespib; first compound 0.01 µM) | relative viability (Motesanib + Luminespib; first compound 0.03162 µM) | relative viability (Motesanib + Luminespib; first compound 0.1 µM) | relative viability (Motesanib + Luminespib; first compound 0.3162 µM) | relative viability (Motesanib + Luminespib; first compound 1 µM) | relative viability (Motesanib + Phenformin; first compound 0.01 µM) | relative viability (Motesanib + Phenformin; first compound 0.03162 µM) | relative viability (Motesanib + Phenformin; first compound 0.1 µM) | relative viability (Motesanib + Phenformin; first compound 0.3162 µM) | relative viability (Motesanib + Phenformin; first compound 1 µM)
1 | NCI-H441 | 0.435 | 0.417 | 0.476 | 0.543 | 0.271 | 0.307 | 0.502 | 0.514 | 0.478 | 0.274 | 0.314 | 0.333 | 0.302 | 0.269 | 0.895 | 0.873 | 0.845 | 0.913 | 0.822
2 | NCI-H1703 | 1.03 | 0.457 | 0.632 | 0.695 | – | – | – | – | – | – | – | – | – | – | – | – | – | – | –
3 | NCI-H1792 | 0.654 | 0.596 | 0.503 | 0.713 | 0.48 | 0.642 | 0.594 | 0.657 | 0.878 | 0.447 | 0.428 | 0.406 | 0.501 | 0.466 | 0.202 | – | 0.367 | 0.258 | 0.243
4 | Calu-6 | 0.91 | 0.895 | 0.833 | 0.859 | – | – | – | – | – | – | – | – | – | – | – | – | – | – | –
5 | SK-LU-1 | 1.15 | 1.13 | 0.74 | 0.913 | 0.676 | 0.649 | 0.823 | 0.831 | 0.824 | 0.219 | 0.188 | 0.195 | 0.204 | 0.158 | 0.489 | 0.5 | 0.539 | 0.569 | 0.591
6 | PC-3 [JPC-3] | 0.972 | 0.94 | 0.964 | 0.934 | 0.803 | 0.836 | 0.858 | 0.897 | 1.01 | 0.686 | 0.745 | 0.683 | 0.597 | 0.733 | 0.482 | 0.478 | 0.458 | 0.512 | 0.507
7 | EMC-BAC-2 | 0.808 | 0.897 | 0.795 | 0.884 | 0.956 | 0.979 | 1.01 | 0.984 | 1.04 | 1.2 | 1.16 | 1.14 | 1.16 | 1.05 | 0.527 | 0.507 | 0.581 | 0.56 | 0.539
8 | LK-2 | 0.579 | 1.11 | 0.376 | 0.573 | 0.251 | 0.398 | 0.28 | 0.285 | 0.374 | 0.213 | 0.191 | – | 0.189 | 0.192 | 0.372 | 0.39 | – | 0.538 | 0.549
9 | NCI-H2126 | 0.736 | 0.685 | 0.712 | 0.771 | 0.608 | 0.645 | 0.625 | 0.698 | 0.709 | 0.9 | 0.901 | 0.963 | 0.933 | 0.961 | 0.525 | 0.557 | 0.511 | 0.567 | 0.579
10 | NCI-H3122 | 1.04 | 1.1 | 1.01 | 1.06 | 0.436 | 0.409 | 0.422 | 0.548 | 0.614 | 0.0808 | 0.0851 | 0.0914 | 0.0799 | 0.0833 | 0.351 | 0.338 | 0.409 | 0.427 | 0.375
